Reference: publication PMC5515971, “Utility of spherical human liver microtissues for prediction of clinical drug-induced liver injury” (Archives of Toxicology, 2017)
Entries after “also recorded” stand apart in the source; their conditions may differ. Where two headings read alike, the source gives them in different places.

What was measured:
[1] = test system: primary human hepatocytes (PHH); assay: Cytotoxicity (cellular ATP, CellTiter-Glo) in 2D plated primary human hepatocytes, 48 h treatment; format: cell-based; details: for IC50: Hepatocyte, 2D primary human hepatocytes (lot IZT), 48 h treatment, total cellular ATP content, read-out: Geomean IC50;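 for all read-outs here: 384-well plates, luminescence read-out, normalized to vehicle wells with 1% DMSO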
[2] = test system: 3D human liver microtissues (hLiMT); assay: Cytotoxicity (cellular ATP) in 3D human liver microtissues, 5-6 days treatment; format: cell-based; details: Homo sapiens; hLiMT, 5/6 days, ATP content; read-out: IC50 SHORT;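 note: Hanging-drop spheroids, seven-point dilution series, re-dosed on day 3, CellTiter-Glo 2.0 luminescence, normalized to 0.5 or 1% DMSO vehicle controls on the same plate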
[3] = test system: 3D human liver microtissues (hLiMT); assay: alpha-GST release into hLiMT supernatant (ELISA); format: cell-based; details: 336 h, 14 days, release into medium, read-out: IC50 (α-GST assay)
[4] = test system: 3D human liver microtissues (hLiMT); assay: Cytotoxicity (cellular ATP, CellTiter-Glo 2.0) in 3D human liver microtissues, 14 day repeat-dose treatment; details: for IC50: Homo sapiens, 336 h
[5] = cited from earlier work
[6] = ref Chen et al 2016 / Chen et al 2011; cited from earlier work
[7] = Clinical DILI severity categorization and DILI pattern; details: P = DILI severity categories 1, 2 and 3; N = categories 4 and 5
[8] = cited from earlier work; for P/N (DILI positive / DILI negative): P = DILI severity categories 1, 2 and 3, N = categories 4 and 5; for DILI category: clinical, from literature and product labels
[9] = test system: BSEP transporter; design: method as in Kenna et al. [2015]; details: ref Kenna et al. [2015]; cited from earlier work
[10] = test system: 3D human liver microtissues (hLiMT)
[11] = Hepatocyte, read-out: Geomean IC50 [µM]
[12] = human Cmax total, used for IC50/Cmax
[13] = human total plasma Cmax, ref literature values
[14] = Table 1, ref Garside et al. (2014)
[15] = clinical DILI severity category, 1-5
[16] = table S-4, ref Garside et al. 2014
[17] = table S-5, ref Garside et al. 2014

| Compound | IC50 [3] [µM] | IC50 [1] [µM] | IC50 [2] [µM] | IC50 ([4]; read-out: IC50 (ATP-assay)) [µM] | IC50 ([4]; read-out: IC50 LONG) [µM] | IC50 [4, 11] [µM] | Cmax [5, 12] [µM] | Cmax [5, 13] [µM] | FDA DILI Classification DILI severity score [6] | LTKB DILI classification [6] | P/N (DILI positive / DILI negative) [7] | P/N (DILI positive / DILI negative) [8] | DILI severity category [8, 14] | DILI severity category [8, 15] | DILI category ([8]; ref Garside et al. 2014) | DILI severity category [8, 16] | DILI severity category [8, 17] [Severe Clinical DILI] | also measured |
| --- | --- | --- | --- | --- | --- | --- | --- | --- | --- | --- | --- | --- | --- | --- | --- | --- | --- | --- |
| CC(=O)Nc1ccc(O)cc1 [Acetaminophen] | 3260 | 4600 | 911 | 732 | 573 | ~573 | 165 | 165 | – | – | – | – | – | – | – | – | – | – |
| COC(c1ccccc1)(c1ccccc1)[C@H](Oc1nc(C)cc(C)n1)C(=O)O [Ambrisentan] | – | > 100 | – | – | – | > 100 | 0.79 | 0.79 | 7 | Ambiguous DILI concern | N | N | 5: No DILI (N = 25) | 5. No DILI | 5. No DILI | – | – | cytotoxicity ([4]; hLiMT 14 days, in words): did not detect cytotoxicity; also recorded: not cytotoxic; fold lower potency to inhibit BSEP transporter function than bosentan [9]: 10 fold; fold lower potency to inhibit BSEP transporter function than sitax(s)entan [9]: 30 fold |
| O=C(O)Cc1ccccc1Nc1c(Cl)cccc1Cl [Diclofenac] | 210 | > 500 | 100 | 45.6 | 61.4 | ~61.4 | 10.1 | 10.1 | – | – | – | – | – | – | – | – | – | – |
| Nc1nc(F)nc2c1ncn2[C@@H]1O[C@H](CO)[C@@H](O)[C@@H]1O [Fludarabine] | – | > 50 | – | – | – | 6.8 | 0.17 | 0.17 | 0 | no DILI concern | N | N | 4: Enzyme elevations in clinic (N = 16) | 4. Enzyme Elevations in Clinic | 4. Enzyme Elevations in Clinic | – | – | Geomean IC50/cmax [10]: 39.9 |
| CC(COc1ccccc1)N(CCCl)Cc1ccccc1 (stereo not drawn) [Phenoxybenzamine] | – | > 50 | – | – | – | > 25 | – | 0.2 | – | – | – | – | – | – | – | – | – | Geomean IC50/cmax [10]: > 126.9 |
| CC(C)[N+](C)(CCOC(=O)C1c2ccccc2Oc2ccccc21)C(C)C [Propantheline] | – | > 50 | – | – | – | > 50 | 0.44 | 0.44 | 0 | no DILI concern | N | N | 5: No DILI (N = 25) | 5. No DILI | 5. No DILI | – | – | – |
| [H]/N=C(/N)N[C@H]1[C@H](O)[C@@H](O)[C@H](O[C@@H]2O[C@@H](C)[C@](O)(C=O)[C@H]2O[C@@H]2O[C@@H](CO)[C@H](O)[C@@H](O)[C@@H]2NC)[C@@H](N/C(N)=N\[H])[C@@H]1O [Streptomycin] | – | > 100 | 100 | – | – | > 100 | 64.5 | 64.5 | – | no DILI concern | N | N | 5: No DILI (N = 25) | 5. No DILI | 5. No DILI | 5 | – | P/N ([8]; binary DILI classification, table S-4): N |
| Nc1c2c(nc3ccccc13)CCCC2 [Tacrine] | – | 106 | – | – | – | ~69.6 | – | – | – | – | – | – | – | – | – | – | – | Geomean IC50/cmax [10]: 696.2 |

Second part, led by results:

| IC50 [3] [µM] | Compound | IC50 [1] [µM] | IC50 [2] [µM] | IC50 ([4]; read-out: IC50 (ATP-assay)) [µM] | IC50 ([4]; read-out: IC50 LONG) [µM] | IC50 [4, 11] [µM] | Cmax [5, 12] [µM] | Cmax [5, 13] [µM] | FDA DILI Classification DILI severity score [6] | LTKB DILI classification [6] | P/N (DILI positive / DILI negative) [7] | P/N (DILI positive / DILI negative) [8] | DILI severity category [8, 14] | DILI severity category [8, 15] | DILI category ([8]; ref Garside et al. 2014) | DILI severity category [8, 16] | DILI severity category [8, 17] [Severe Clinical DILI] | also measured |
| --- | --- | --- | --- | --- | --- | --- | --- | --- | --- | --- | --- | --- | --- | --- | --- | --- | --- | --- |
| 48.5 | CCc1nn(CCCN2CCN(c3cccc(Cl)c3)CC2)c(=O)n1CCOc1ccccc1 [Nefazodone] | 36.2 | 25.3 | ~44.9 | 29.4 | ~29.4 | 4.3 | 4.26 | 8 | most DILI concern | – | – | 1: Severe clinical DILI (N = 23) | 1. Severe Clinical DILI | 1. Severe Clinical DILI | 1 | 1. | classification at 50× MOS threshold ([1]; PHH 48 h): hepatotoxic; classification at 50× MOS threshold ([4]; hLiMT 14 days): hepatotoxic |
| 6.26 | C1CCC(C(CC2CCCCN2)C2CCCCC2)CC1 (stereo not drawn) [Perhexiline] | 11.2 | 4.2 | 2.01 | 2.5 | ~2.6 | – | – | 8 | most DILI concern | – | – | 1: Severe clinical DILI (N = 23) | 1. Severe Clinical DILI | 1. Severe Clinical DILI | 1 | 1. | – |
| 62.4 | Cc1ccc(C(=O)c2cc(O)c(O)c([N+](=O)[O-])c2)cc1 [Tolcapone] | 158 | 30.1 | 19.3 | 15.5 | ~19 | 47.6 | 47.6 | 8 | most DILI concern | – | – | 1: Severe clinical DILI (N = 23) | 1. Severe Clinical DILI | 1. Severe Clinical DILI | 1 | 1. | – |
| 14 | Cc1c(C)c2c(c(C)c1O)CCC(C)(COc1ccc(CC3SC(=O)NC3=O)cc1)O2 (stereo not drawn) [Troglitazone] | > 100 | 25.6 | 10.8 | 14.6 | ~14.6 | 6.4 | – | 8 | most DILI concern | – | – | 1: Severe clinical DILI (N = 23) | 1. Severe Clinical DILI | 1. Severe Clinical DILI | 1 | 1. | – |
